Values joined by “and” are separate entries in the source; they are usually repeats but may differ in a detail not shown here. Equal values may be shown once. Marks after values point to notes of the source that are not given here.
Experiment: X-ray CT of volume, mean density and 3D shape of Radiesse nodules and injected hyperosmotic solutions (Example 4)
Assay type: in vivo, Pig (Sus scrofa domesticus)
Conditions: for Change in Volume as percent of Injected Volume, Day 14/15: Example 4 (Day 15); for Change in Volume as percent of Injected Volume, Day 14/15 / Change in Volume as percent of Injected Volume, Day 0 + 1 h 15 / Change in Volume as percent of Injected Volume, Day 0 + 2 h / Change in Volume as percent of Injected Volume, Day 0 + 4 h / Change in Volume as percent of Injected Volume, Day 1 / Change in Volume as percent of Injected Volume, Day 3 / Change in Volume as percent of Injected Volume, Day 7: mean; for Change in Volume as percent of Injected Volume, Day 0 + 1 h 15 / Change in Volume as percent of Injected Volume, Day 0 + 2 h / Change in Volume as percent of Injected Volume, Day 0 + 4 h / Change in Volume as percent of Injected Volume, Day 1 / Change in Volume as percent of Injected Volume, Day 3 / Change in Volume as percent of Injected Volume, Day 7: Example 4
Procedure: Pigs are injected by SC route with Radiesse® filler without Lidocaine (Test item). One hour after the Radiesse® filler injection, selected different hyperosmotic solutions are injected by SC route into the dermal filler nodules. For two Radiesse® filler nodules per pig, no additional product is injected; these nodules are used as controls.
The evolution over time of the volume and mean density of the Radiesse® filler nodules with injection of the different solutions are assessed by CT-scanner at selected time points: on Day 0, at about 1 hour (h) and 15 minutes (min), 2 h and 4 h after the Radiesse® filler injection and solution injection, and then, on Day 1 (about 24 h after Radiesse® filler injection), Day 3, Day 7 and Day 15.
On Day 0, 4 pigs received ten (10) SC injections of Radiesse® dermal filler (P20WK-EE-01) of about 500 μl/nodule in the flank (ventral area) at T=0. One hour after Radiesse® dermal filler injections (T=1 h), about 1.5 ml of different hyperosmotic solutions (P20WK-EE-02 to P20WK-EE-05) were each injected into 8 Radiesse® filler nodules. Two Radiesse® filler nodules per animal were not injected with hyperosmotic solution and served as controls.
A total of 7 CT-scans were performed at 1 h 15±10 min, 2 h±15 min, 4 h±20 min, 1 day (24 h±1 h), 3, 7 and 15 days after injection of the dermal filler, as described in FIG. 9A.
On Day 0 (TO), 10 SC injections of test item P20WK-EE-01 (Radiesse® dermal filler) were performed in the ventral area (five nodules on each flank of the ventral area). For each SC nodule, a theoretical volume of 500 μL was administered. One hour (±5 min) after injection of dermal filler, SC injections of the different solutions (prepared on Day −3) were performed into 8 nodules of dermal filler. For each injection of solution, a theoretical volume of 1.5 mL was administered (see, e.g., injection scheme in Table 11).
In order to measure the volume, the mean density and to visualize the 3D shape of the dermal filler SC injected (in presence or absence of different hyperosmotic solutions), in vivo CT-scans were performed on Day 0: 1 h 15 (±10 min), 2 h (±15 min) and 4 h (±20 min), on Day 1 (24 h±1 h), Day 3, Day 7 and Day 15.
The CT acquisitions are analyzed with the software Avizo version 9.2.0. The objective of this analysis was to assess the dispersion over time of the Radiesse® dermal filler injected by SC route after injection of different hyperosmotic solutions.
To achieve this goal, the evolution of these parameters is observed over time: • the volume of each nodule (Radiesse® dermal filler and solution separately), • the mean density of each nodule (Radiesse® dermal filler and solution separately), • the 3D shape of each nodule by visualization of the 3D model of each nodule at each time point (Radiesse® dermal filler with or without solution separately). Segmentation:
An image segmentation is performed on each CT acquisition on the […] reconstruction. At first, a manual pre-segmentation is performed around each nodule in order to roughly isolate the voxels corresponding to Radiesse® dermal filler and hyperosmotic solutions and defined a Region of Interest (ROI). Secondly, an automatic segmentation is applied on the ROI previously defined using a global grey level thresholding procedure. […] Similarly, all the voxels having a grey level between these HU values are selected in a ROI and corresponds to the pure solution or solution containing some dispersed Radiesse® dermal filler (see, FIG. 10).
Then, a 3D model of these selected voxels (see, FIG. 11) is obtained allowing the calculation of the total volume (in mm^3) and the mean density (in HU) of the two defined compartments of each nodule of Pure Radiesse® dermal filler and of each solution containing or not containing dispersed Radiesse® dermal filler.
The volume (in mm^3) of the ROI of Radiesse® dermal filler and the solutions corresponding to each nodule and the mean density (in HU) of each nodule are calculated at each time point.

[1] = individual nodules, [+250, +∞] HU, listed as Radiesse + Fructose
[2] = mean of 8 nodules, [+250, +∞] HU

| SMILES | Change in Volume as percent of Injected Volume, Day 14/15 [%] | Change in Volume as percent of Injected Volume, Day 0 + 1 h 15 | Change in Volume as percent of Injected Volume, Day 0 + 2 h [%] | Change in Volume as percent of Injected Volume, Day 0 + 4 h [%] | Change in Volume as percent of Injected Volume, Day 1 [%] | Change in Volume as percent of Injected Volume, Day 3 [%] | Change in Volume as percent of Injected Volume, Day 7 [%] | average of the mean density of solution nodules, T=1 h 15 (between −100 HU and 250 HU) [HU] | mean volume of solution with potential dispersed Radiesse, Day 15 (between −100 HU and 250 HU) [mm^3] | variation of solution volume on Day 15 compared to the injected volume on T=1 h (between −100 HU and 250 HU) [%] | average of the mean density of nodules, Day 15 (pure Radiesse >250 HU) [HU] | also measured |
| --- | --- | --- | --- | --- | --- | --- | --- | --- | --- | --- | --- | --- |
| O=C(CO)[C@@H](O)[C@H](O)[C@H](O)CO [sol 11, Fructose] | 1930 | 1581* percent | 1610 | 1871 | 2285 | 1959 | 2002 | 58.6±6.2 | 883.9±269.9 | −42.8 | 512.9±57.4 | average of the mean density of solution nodules, T=4 h (between −100 HU and 250 HU): −1.0±7.7 HU; mean volume of solution with potential dispersed Radiesse, T+4 h (between −100 HU and 250 HU): 7000.8±1389.9 mm^3; variation of the average of the mean density of solutions, Day 15 compared to T=1 h 15 (between −100 HU and 250 HU): 34.7%; Nodule volume, Day 0 + 1 h 15 [1]: 799.1 mm^3 and 845.1 mm^3 and 739.4 mm^3 and 852.5 mm^3 and 760.4 mm^3 and 837.5 mm^3 and 793.0 mm^3 and 710.6 mm^3; Nodule volume, Day 0 + 2 h [1]: 795.9 mm^3 and 856.3 mm^3 and 750.5 mm^3 and 863.0 mm^3 and 770.1 mm^3 and 898.7 mm^3 and 808.3 mm^3 and 712.1 mm^3; Nodule volume, Day 0 + 4 h [1]: 1039.3 mm^3 and 957.8 mm^3 and 861.1 mm^3 and 985.4 mm^3 and 902.9 mm^3 and 1039.4 mm^3 and 912.1 mm^3 and 796.2 mm^3; Nodule volume, Day 1 [1]: 1168.5 mm^3 and 1120.2 mm^3 and 1122.3 mm^3 and 1226.3 mm^3 and 1085.5 mm^3 and 1165.0 mm^3 and 1153.8 mm^3 and 1115.5 mm^3; Nodule volume, Day 3 [1]: 1043.6 mm^3 and 1039.7 mm^3 and 961.0 mm^3 and 1053.3 mm^3 and 969.6 mm^3 and 992.2 mm^3 and 891.2 mm^3 and 897.7 mm^3; Nodule volume, Day 7 [1]: 1041.9 mm^3 and 1040.7 mm^3 and 1239.0 mm^3 and 1200.9 mm^3 and 879.3 mm^3 and 953.1 mm^3 and 833.5 mm^3 and 838.3 mm^3; Nodule volume, Day 15 [1]: 997.7 mm^3 (2×) and 997.2 mm^3 and 944.9 mm^3 and 1054.8 mm^3 and 923.5 mm^3 and 912.9 mm^3 and 905.4 mm^3; Mean nodule volume, Day 0 + 1 h 15 [2]: 792.2 mm^3; Mean nodule volume, Day 0 + 2 h [2]: 806.9 mm^3; Mean nodule volume, Day 0 + 4 h [2]: 936.8 mm^3; Mean nodule volume, Day 1 [2]: 1144.6 mm^3; Mean nodule volume, Day 3 [2]: 981.0 mm^3; Mean nodule volume, Day 7 [2]: 1003.3 mm^3; Mean nodule volume, Day 15 [2]: 966.8±52.9 mm^3; Mean nodule volume, Day 15 (mean of 8 nodules, [+250, +∞] HU, listed as Radiesse + Fructose): 966.8 mm^3; average of the mean density of nodules, Day 1 (pure Radiesse >250 HU): 424.6±31.6 HU; average of the mean density of nodules, Day 3 (pure Radiesse >250 HU): 505.0±72.2 HU |
| O=C([O-])O.[Na+] [sol 14, Sodium hydrogen carbonate (sodium bicarbonate)] | 1977 | 1529* percent | 1561 | 1799 | 2214 | 2014 | 2345 | 25.7±5.5 | 1352.3±570.6 | −1.4 | 441.3±62.9 | average of the mean density of solution nodules, T=2 h (between −100 HU and 250 HU): 14.1±7.1 HU; mean volume of solution with potential dispersed Radiesse, T=2 h (between −100 HU and 250 HU): 2577.4±54.0 mm^3 |

Source: US12239661B2, “Methods and compositions for treating undesired implanted tissue filler” (priority 2019, dated 2025)
